Laboratory results from patent US9132200B2, “Oligomer-calcium channel blocker conjugates” (NEKTAR THERAPEUTICS, priority 2007, dated 2015).
pIC50: −log10 of the molar value. Where two headings read alike, the source gives them in different places.

Target: calcium channel (Rattus norvegicus, UniProt P22002)
Assay: Calcium channel binding assay similar to Example 3, 3[H]-diltiazem as competing radioligand
Description: […] […] The reactions were carried out in 50 mM TRIS-HCl (pH 7.7) at 25° C. for 60 minutes. The reaction was terminated by rapid vacuum filtration onto glass fiber filters. […] Molecular Pharmacology 25, 235-241 (1984)).

[1] = Binding Assay No. 2 (Table 2), 3[H]-diltiazem radioligand

Sequence of calcium channel (P22002 whole entry): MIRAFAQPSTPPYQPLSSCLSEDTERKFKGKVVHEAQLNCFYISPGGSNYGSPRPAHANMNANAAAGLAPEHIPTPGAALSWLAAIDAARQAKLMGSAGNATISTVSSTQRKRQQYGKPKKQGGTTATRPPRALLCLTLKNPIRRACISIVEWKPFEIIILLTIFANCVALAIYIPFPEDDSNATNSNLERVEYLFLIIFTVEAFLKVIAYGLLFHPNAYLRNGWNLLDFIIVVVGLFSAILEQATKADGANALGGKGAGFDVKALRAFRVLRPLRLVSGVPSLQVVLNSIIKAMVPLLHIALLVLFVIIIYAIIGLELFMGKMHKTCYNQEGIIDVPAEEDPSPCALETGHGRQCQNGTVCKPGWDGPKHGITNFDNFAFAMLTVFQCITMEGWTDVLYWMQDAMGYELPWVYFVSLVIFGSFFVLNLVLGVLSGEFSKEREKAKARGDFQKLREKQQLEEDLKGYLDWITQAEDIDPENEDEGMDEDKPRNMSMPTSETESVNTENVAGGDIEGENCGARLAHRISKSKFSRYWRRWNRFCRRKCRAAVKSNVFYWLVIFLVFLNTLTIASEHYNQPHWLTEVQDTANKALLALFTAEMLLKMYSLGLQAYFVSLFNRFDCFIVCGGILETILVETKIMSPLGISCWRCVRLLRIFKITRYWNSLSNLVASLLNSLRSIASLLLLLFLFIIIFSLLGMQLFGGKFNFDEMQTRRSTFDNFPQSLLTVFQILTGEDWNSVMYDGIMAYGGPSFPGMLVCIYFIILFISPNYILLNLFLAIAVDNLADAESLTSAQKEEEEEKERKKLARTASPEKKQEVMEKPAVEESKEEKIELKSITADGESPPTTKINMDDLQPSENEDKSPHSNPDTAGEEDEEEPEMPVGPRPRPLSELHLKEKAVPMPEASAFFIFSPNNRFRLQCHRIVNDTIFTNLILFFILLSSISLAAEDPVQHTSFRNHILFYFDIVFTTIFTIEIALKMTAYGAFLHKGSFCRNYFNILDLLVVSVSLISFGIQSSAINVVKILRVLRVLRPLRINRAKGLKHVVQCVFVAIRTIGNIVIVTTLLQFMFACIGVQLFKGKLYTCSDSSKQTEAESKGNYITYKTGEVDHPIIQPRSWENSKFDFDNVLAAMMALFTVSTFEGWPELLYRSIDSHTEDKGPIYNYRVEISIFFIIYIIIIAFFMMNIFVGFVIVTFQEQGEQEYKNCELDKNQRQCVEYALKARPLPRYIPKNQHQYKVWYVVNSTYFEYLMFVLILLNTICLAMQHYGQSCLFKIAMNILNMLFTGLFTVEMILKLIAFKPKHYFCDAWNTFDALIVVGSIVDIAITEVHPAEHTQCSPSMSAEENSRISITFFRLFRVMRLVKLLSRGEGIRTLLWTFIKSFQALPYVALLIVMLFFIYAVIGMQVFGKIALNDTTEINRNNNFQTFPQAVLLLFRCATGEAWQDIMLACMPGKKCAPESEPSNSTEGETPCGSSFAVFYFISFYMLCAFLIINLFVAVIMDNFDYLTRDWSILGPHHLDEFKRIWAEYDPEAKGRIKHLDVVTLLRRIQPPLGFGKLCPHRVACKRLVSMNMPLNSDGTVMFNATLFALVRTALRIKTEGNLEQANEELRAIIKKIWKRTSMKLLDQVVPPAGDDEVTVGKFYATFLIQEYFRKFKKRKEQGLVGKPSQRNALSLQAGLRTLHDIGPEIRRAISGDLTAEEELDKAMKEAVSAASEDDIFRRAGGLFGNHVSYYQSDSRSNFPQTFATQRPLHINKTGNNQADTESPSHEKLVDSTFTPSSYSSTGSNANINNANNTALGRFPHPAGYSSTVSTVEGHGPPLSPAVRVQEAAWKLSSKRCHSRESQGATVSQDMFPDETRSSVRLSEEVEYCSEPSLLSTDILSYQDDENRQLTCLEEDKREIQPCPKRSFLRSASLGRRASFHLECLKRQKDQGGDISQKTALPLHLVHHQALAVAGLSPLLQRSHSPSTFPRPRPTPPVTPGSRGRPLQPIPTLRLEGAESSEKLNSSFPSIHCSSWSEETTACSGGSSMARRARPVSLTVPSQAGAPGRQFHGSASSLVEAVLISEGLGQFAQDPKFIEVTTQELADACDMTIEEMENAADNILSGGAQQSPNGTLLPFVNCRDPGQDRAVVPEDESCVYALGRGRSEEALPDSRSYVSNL

SMILES | pIC50 | pIC50 [1]
COCCOCCOCCOCCOCCOCCOc1ccc(CCN(C)CCCC(C#N)(c2ccc(OC)c(OC)c2)C(C)C)cc1OC (stereo not shown) [mPEG6-O-Verapamil, O-mPEG6-verapamil] | 6.46 | –
COCCOCCOCCOCCOCCOCCOCCOc1ccc(CCN(C)CCCC(C#N)(c2ccc(OC)c(OC)c2)C(C)C)cc1OC (stereo not shown) [mPEG7-O-Verapamil, O-mPEG7-verapamil] | – | 5.95
COCCOCCOCCOc1ccc(CCN(C)CCCC(C#N)(c2ccc(OC)c(OC)c2)C(C)C)cc1OC (stereo not shown) [mPEG3-O-Verapamil, O-mPEG3-verapamil] | – | 6.27
COCCOCCOCCOCCOCCOc1ccc(CCN(C)CCCC(C#N)(c2ccc(OC)c(OC)c2)C(C)C)cc1OC (stereo not shown) [mPEG5-O-Verapamil, O-mPEG5-verapamil] | – | 6.07
